US10513513B2, “Salts of quinazoline derivative or crystals thereof, and the process for producing thereof” (Shionogi & Co., Ltd., priority 2015, dated 2019)
Structures can show the parent of a compound that is named as a salt.

Experiments:
Assay type in all cases: physicochemical
[1] = Stability test of crystals on heating (NMR before/after); settings: heated at 50° C. for 8 hours
Protocol: (Results of Stability Test)
The crystals of Compound (IIA) obtained in Example 21 were heated at 50° C. for 8 hours and measured NMR data.

[2] = Observation of hygroscopicity of isolated salt; settings: isolated solid
Protocol: Ethyl acetate (8 mL) was added to Compound 3 (4.12 g, 17.7 mmol), and the mixture was stirred. When 4 mol/L a solution (16 mL) of hydrochloric acid in ethyl acetate was added, white solids were precipitated. Ethyl acetate (8 mL) was added, and then the mixture was stirred for about 4 hours at room temperature.
Benzenesulfonic acid (78.57 mg) and tetrahydrofuran (0.2 mL) were stirred at 50° C., and a tetrahydrofuran (0.2 mL) solution of Compound 3 (51.54 mg, 0.222 mmol) was added dropwise. After about 20 minutes, cooling the mixture to room temperature caused solids to precipitate. Then, 0.15 mL of tetrahydrofuran was added, and the mixture was stirred at 50° C. for 10 minutes and cooled to 10° C.

[3] = Test of solubility in water for injection; settings: stirred at 37° C. for 1 hour, HPLC Method A
Protocol: (Test of Solubility in Water for Injection)
1. Preparation of Calibration Curve
First, 5 mg of monohydrochloride crystal Form I of Compound (I) was precisely weighed and dissolved in a mixed solution of acetonitrile:water (1:1), and thus a 500 μg/mL solution was obtained. The obtained solution was diluted with a mixed solution of acetonitrile:water (1:1) such that the concentrations of the compound were 5 and 50 μg/mL. Accordingly, a standard calibration curve was prepared according to HPLC measurement conditions (Method A). The same operation was carried out for monohydrochloride crystal Form II, monohydrochloride crystal Form V, monohydrochloride crystal Form VI, mono-p-toluenesulfonate crystal Form I, and free base crystals.
2. Preparation of Sample Solution
First, 1 mg of monohydrochloride crystal Form I of Compound (I) was precisely weighed and transferred to a vial having a volume of 4 mL. Then, 1 mL of water (water for injection) was added, and the mixture was stirred at 37° C. for 1 hour. After being stirred, this suspension was filtered, and the peak area was measured under HPLC measurement conditions (Method A) using a solution obtained by diluting the filtrate two-fold with a mixed solution of acetonitrile:water (1:1) as a sample. The concentration was calculated using the peak area and the calibration curve prepared above. The same operation was carried out for monohydrochloride crystal Form II, monohydrochloride crystal Form V, monohydrochloride crystal Form VI, mono-p-toluenesulfonate crystal Form I, and free base crystals.

[4] = Light exposure test (photostability); settings: for E isomer (Retention time 38 minutes), Light exposed sample: D65 lamp, total illuminance about 1.2 million lx·hr; for E isomer (Retention time 38 minutes), Light exposed sample / E isomer (Retention time 38 minutes), Dark control: HPLC Method B; for E isomer (Retention time 38 minutes), Increased amount: light exposed sample minus dark control
Source text: The photostability test is one of the methods for measuring chemical or physicochemical changes of an active pharmaceutical ingredient or a pharmaceutical preparation caused by light exposure to evaluate properties of a sample with respect to light. In the photostability test, a sample such as an active pharmaceutical ingredient or a pharmaceutical preparation is irradiated with light at a specified output for a certain period of time. Properties of the sample with respect to light can be evaluated by analyzing the impurities and analogous substances, crystal form, color difference, and the like of the sample by scientific techniques (such as high performance liquid chromatography, X-ray crystal diffraction, and colorimetry) when a specified total illuminance is reached. In order to verify that a specified amount of light exposure is attained, the amount of light exposure is managed using a radiometer or a luminometer, and a test is carried out using an actinometric system.
(Photostability Measurement)
A photostability test was performed using a photostability tester (model LTL200A5-15WCD) by Nagano Science. A D65 lamp was used as an irradiation source of light, and light was irradiated to a total illuminance of about 1.2 million 1×·hr under 4000 lx·hr conditions.
The quality evaluations of the respective crystals were carried out using HPLC (Method B).

[5] = Moisture sorption-desorption isothermal measurement; settings: for Ratio of increased mass in moisture desorption isothermal measurement: ratio at 0% Target % P/P0 after desorption, 25° C.; for Ratio of increased mass (moisture sorption): mass increase at 95% Target % P/P0 relative to mass at 0% Target % P/P0, 25° C.
Source text: (Moisture Sorption-Desorption Isothermal Measurement)
Moisture sorption-desorption isothermal measurement is measuring the weight changes of a subject solid under various relative humidity conditions, and is a method for determining moisture sorption-desorption behaviors.
As a basic measurement method, the relative humidity is increased in increments of 5% or 10% based on the dry weight at 0% Target % P/P0 (relative humidity 0%), and after the weights at respective relative humidities are stabilized, the amount of adsorbed water can be obtained from the weight increased from a reference value. Similarly, it is possible to measure the amount of desorbed water by reducing the relative humidity in increments of 5% or 10% from 100% Target % P/P0.
Sorption and desorption isotherms can be obtained by plotting the weight change values at respective relative humidities. From the results, it is possible to investigate the sorption and desorption phenomena of attached moisture at respective humidities. Also, when anhydride crystals and hydrate crystals undergo mutual crystal transition due to humidity, it is possible to calculate the humidity, at which crystal transition occurs, and the amount of water of crystallization.
Since the sorption and desorption of attached water and water of crystallization are affected by the particle size, degree of crystallinity, crystal habit, and the like, the measurement results may slightly vary.
Moisture sorption-desorption isothermal measurement was performed on the crystals obtained in each Example. About 10 mg of a sample was weighed onto a sample pan, and measurement was performed. Measurement conditions are as shown below.
Device: DVS Advantage by Surface Measurement Systems Ltd.
Measurement points: from 0% Target % P/P0 to 95% Target % P/P0 in increments of 5%, then from 95% Target % P/P0 to 0% Target % P/P0 in decrements of 5% Temperature: 25° C. […]

[6] = Test of solubility in organic solvent; settings: stirred at 22° C. for 4 hours, supernatant, HPLC Method B; for Concentration (% by weight) in 2-Propanol: suspended in 2-propanol; for Concentration (% by weight) in Acetone: suspended in acetone; for Concentration (% by weight) in Ethyl acetate: suspended in ethyl acetate
Protocol: (Test of Solubility in Organic Solvent)
The monohydrochloride crystal Form I, monohydrochloride crystal Form V, and free base crystals of Compound (I) were each suspended in 2-propanol, acetone, and ethyl acetate, and stirred at 22° C. for 4 hours, and the concentrations of supernatants were measured (HPLC: Method B).

[7] = listed as mono-p-toluenesulfonate crystal Form I
[8] = listed as Monohydrochloride form crystal VI
[9] = listed as Monohydrochloride form crystal V

Structure (SMILES)	E isomer (Retention time 38 minutes), Light exposed sample [4]	E isomer (Retention time 38 minutes), Increased amount [4]	Ratio of increased mass in moisture desorption isothermal measurement [5]	Concentration (% by weight) in 2-Propanol [6]	Concentration (% by weight) in Acetone [6]	Concentration (% by weight) in Ethyl acetate [6]	Solubility in water for injection [3]	E isomer (Retention time 38 minutes), Dark control [4]	Ratio of increased mass (moisture sorption) [5]	also measured
NOC[C@H]1COCCN1 [Compound (IIA)]										Stability of crystals on heating (change of NMR peaks) [1]: no changes to the peaks were observed
NOC[C@H]1COCCN1 [Compound (II′)]										Hygroscopicity (observation) [2]: absorbed moisture and deliquesced
NOC[C@H]1COCCN1 [Compound (II″)]										Hygroscopicity (observation) [2]: highly hygroscopic
CC#C/C(=N\OC[C@H]1COCCN1)c1ccc2ncnc(Nc3ccc(OCc4cccc(F)c4)c(Cl)c3)c2c1 [Free base crystal]	2.59 area %	2.59 area %	about 0.16%	0.49 % by weight	8.1 % by weight	3.3 % by weight				Solubility in water for injection ([3]; listed as free base crystals): not dissolved in water for injection at all
CC#C/C(=N\OC[C@H]1COCCN1)c1ccc2ncnc(Nc3ccc(OCc4cccc(F)c4)c(Cl)c3)c2c1 [Mono-p-toluenesulfonate crystal Form I]	32.86 area %	32.76 area %	about 0.12%				26.6 µg/mL	0.10 area %	small	Solubility in water for injection [3, 7]: high solubilities; E isomer (Retention time 38 minutes), Increased amount [4, 7]: about 33 area %
CC#C/C(=N\OC[C@H]1COCCN1)c1ccc2ncnc(Nc3ccc(OCc4cccc(F)c4)c(Cl)c3)c2c1 [Monohydrochloride crystal Form II]	1.21 area %	−0.23 area %	about 0.05%				56.0 µg/mL	1.44 area %	small	Solubility in water for injection ([3]; listed as monohydrochloride crystal Form II): high solubilities
CC#C/C(=N\OC[C@H]1COCCN1)c1ccc2ncnc(Nc3ccc(OCc4cccc(F)c4)c(Cl)c3)c2c1 [Monohydrochloride crystal Form I]	4.41 area %	3.78 area %	about 0.08%	0.03 % by weight	0.08 % by weight	0.01 % by weight	34.5 µg/mL	0.63 area %	small	Solubility in water for injection ([3]; listed as monohydrochloride crystal Form I): high solubilities
CC#C/C(=N\OC[C@H]1COCCN1)c1ccc2ncnc(Nc3ccc(OCc4cccc(F)c4)c(Cl)c3)c2c1 [Monohydrochloride crystal Form VI]			about 0.06%				12.9 µg/mL		small	Solubility in water for injection ([3]; listed as monohydrochloride crystal Form VI): high solubilities; E isomer (Retention time 38 minutes), Light exposed sample [4, 8]: 1.80 area %; E isomer (Retention time 38 minutes), Dark control [4, 8]: 1.16 area %; E isomer (Retention time 38 minutes), Increased amount [4, 8]: 0.64 area %
CC#C/C(=N\OC[C@H]1COCCN1)c1ccc2ncnc(Nc3ccc(OCc4cccc(F)c4)c(Cl)c3)c2c1 [Monohydrochloride crystal Form V]			about 0.05%	0.01 % by weight	0.02 % by weight	0.00 % by weight	14.0 µg/mL		small	Solubility in water for injection ([3]; listed as monohydrochloride crystal Form V): high solubilities; E isomer (Retention time 38 minutes), Light exposed sample [4, 9]: 1.19 area %; E isomer (Retention time 38 minutes), Dark control [4, 9]: 0.13 area %; E isomer (Retention time 38 minutes), Increased amount [4, 9]: 1.06 area %
CC#C/C(=N\OC[C@H]1COCCN1)c1ccc2ncnc(Nc3ccc(OCc4cccc(F)c4)c(Cl)c3)c2c1 [Monosulfate crystal]			about 0.13%							Ratio of increased mass (moisture sorption) ([5]; listed as monosulfate crystals): about 3.3%
